Values quoted from earlier work in patent publication US6406713B1 (priority 1987, dated 2002).

Legend:
HTLV-III/LAV virus = conditions: HTLV-III/LAV infected cell cultures
histoplasmosis = conditions: mouse, in vivo

| Compound | protection of target cells against cytopathic effects of the virus (HTLV-III/LAV virus) | serum and tissue distributions (histoplasmosis) | toxicity versus free amphotericin B preparations (histoplasmosis) |
| --- | --- | --- | --- |
| COC(=O)[C@H]1[C@@H]2C[C@@H](O[C@@H]3O[C@H](C)[C@@H](O)[C@H](N)[C@@H]3O)/C=C/C=C/C=C/C=C/C=C/C=C/C=C/[C@H](C)[C@@H](O)[C@@H](C)[C@H](C)OC(=O)C[C@H](O)C[C@H](O)CC[C@@H](O)[C@H](O)C[C@H](O)C[C@](O)(C[C@@H]1O)O2 [amphotericin B methyl ester] | protected target cells against the cytopathic effects of the virus | – | – |
| liposomal-amphotericin B | – | lower serum levels and higher liver and spleen concentrations | less toxic |
| C[C@@H]1[C@H](O)[C@@H](C)/C=C/C=C/C=C/C=C/C=C/C=C/C=C/[C@H](O[C@@H]2O[C@H](C)[C@@H](O)[C@H](N)[C@@H]2O)C[C@@H]2O[C@](O)(C[C@@H](O)C[C@@H](O)[C@H](O)CC[C@@H](O)C[C@@H](O)CC(=O)O[C@H]1C)C[C@H](O)[C@H]2C(=O)O [amphotericin B] | protected target cells against the cytopathic effects of the virus | – | – |
